This is an account of results in patent publication US20230219942A1, “COMPOUNDS COMPRISING A THREE RING CORE AS PD-1/PD-L1 BLOCKERS” (RELIVE THERAPEUTICS INC., priority 2020, published 2023).

What is called IC50 is the concentration that gives 50% inhibition.

In the experiment the target is T1, PD-1/PD-L1 interaction (Homo sapiens, UniProt Q9NZQ7).
T1 construct: Tag1 or Tag2 (undisclosed kit tag); purchased Cisbio
In words: Cisbio PD-1/PD-L1 Homogeneous Time-Resolved Fluorescence (HTRF) binding assay. As to conditions: for IC50: read-out: Reported IC50. The text has this: The ability of compounds of the disclosure to inhibit the PD-1/PD-L1 interaction was investigated using a Cisbio PD-1/PD-L1 Homogeneous Time-Resolved Fluorescence (HTRF) binding assay (https://ca.cisbio.net/human-pd1-pd-l1-biochemical-binding-assay-44666).
With the assay, the interaction between PD-L1 and PD-1 is detected by using anti-Tag1 labeled with Europium (HTRF donor) and anti-Tag2 labeled with XL665 (HTRF acceptor). When the donor and acceptor antibodies are brought into close proximity due to PD-L1 and PD-1 binding, excitation of the donor antibody triggers fluorescence resonance energy transfer (FRET) towards the acceptor antibody, which in turn emits specifically at 665 nm. This specific signal is directly proportional to the extent of PD-1/PD-L1 interaction. Thus, a compound blocking the PD-1/PD-L1 interaction causes a reduction in the HTRF signal.
The assay was carried out in accordance with the product insert.

Like-named read-outs stand apart in the source and are kept apart here.

T1 sequence (Q9NZQ7 19-238 limits assumed): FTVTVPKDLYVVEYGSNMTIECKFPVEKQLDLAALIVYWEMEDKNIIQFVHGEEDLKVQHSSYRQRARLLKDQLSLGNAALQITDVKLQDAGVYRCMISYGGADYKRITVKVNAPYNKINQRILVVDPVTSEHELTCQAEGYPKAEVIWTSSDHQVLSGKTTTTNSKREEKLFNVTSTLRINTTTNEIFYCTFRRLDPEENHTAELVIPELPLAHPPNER

As for `O=C(Cc1ccccc1)N1CCN(Cc2csc(NC[C@@H]3CCCN3Cc3ccc(Br)cc3)n2)CC1` [Compound 2463-262], where the note is “Table 8, Run: Crude”, the half-maximal inhibitory concentration (IC50) was determined as 3.1 µM.
As for `O=C(CCc1nc2ccccc2[nH]1)N1CCN(Cc2csc(NC[C@@H]3CCCN3Cc3ccc(Br)cc3)n2)CC1` [Compound 2678-2], the IC50 (Table 8, Run: Pure) is 1.9 µM.
For `O=C(CCc1nc2ccccc2[nH]1)N1CCN(Cc2csc(NC[C@@H]3CCCN3Cc3ccc(F)cc3)n2)CC1` [Compound 2678-3], the IC50 (Table 8, Run: Pure) came to 7 µM.
For `COc1ccc(CN2CCC[C@H]2CNc2nc(CN3CCN(C(=O)CCc4nc5ccccc5[nH]4)CC3)cs2)cc1OC` [Compound 2678-5], where the note is “Table 8, Run: Pure”, the concentration for half-maximal inhibition (IC50) is 9.2 µM.
Regarding `COc1cc(C(=O)N2CCN(Cc3csc(NC[C@@H]4CCCN4Cc4ccc(Br)cc4)n3)CC2)cc(OC)c1OC` [Compound 2678-10], the IC50 amounted to 0.33 µM (Table 8, Run: Pure); 0.051 µM (Table 9); 0.051 µM (Table 9, same result in μM). This compound also yielded a KD/IC50 (Table 11, compound of the disclosure) of 330 nM.
On to `CCCCCC(=O)N1CCN(Cc2csc(NC[C@@H]3CCCN3CCCc3nc4ccccc4[nH]3)n2)CC1` [Compound 2678-32], for which the IC50 (Table 8, Run: Pure (70% Pure)) stood at 7.9 µM.
Regarding `Cc1cnc(C(=O)N2CCN(Cc3csc(NC[C@@H]4CCCN4Cc4ccc(F)cc4)n3)CC2)cn1` [Compound 2678-51], the IC50 (Table 8, Run: Pure) came out at 8.7 µM.
For the compound `COc1ccc(CN2CCC[C@H]2CNc2nc(CN3CCN(C(=O)c4cnc(C)cn4)CC3)cs2)cc1OC` [Compound 2678-53], the IC50 (Table 8, Run: Pure) was determined as 53 µM.
The same measure, in the same setting: to `CC(Oc1ccccc1)C(=O)N1CCN(Cc2csc(NC[C@@H]3CCCN3Cc3ccc(Br)cc3)n2)CC1` (stereo partly drawn) [Compound 2678-58] belongs 0.8 µM.
Regarding `O=C(c1ccco1)N1CCN(Cc2csc(NC[C@@H]3CCCN3Cc3ccc(Br)cc3)n2)CC1` [Compound 2678-66], the IC50 (Table 8, Run: Pure) came to 0.87 µM.
Take `O=C(c1ccco1)N1CCN(Cc2csc(NC[C@@H]3CCCN3CCCc3nc4ccccc4[nH]3)n2)CC1` [Compound 2678-72]: the IC50 (Table 8, Run: Pure (70% Pure)) amounted to 11 µM.
Regarding `O=C(CCc1nc2ccccc2[nH]1)N1CCN(Cc2csc(NCC3CC(OCc4ccccc4)CN3Cc3ccc(Br)cc3)n2)CC1` (stereo not drawn) [Compound 2678-78], under “Table 8, Run: Pure”, the IC50 worked out at 1.6 µM.
`COc1cc(C(=O)N2CCN(Cc3csc(NCC4CC(OCc5ccccc5)CN4Cc4ccc(Br)cc4)n3)CC2)cc(OC)c1OC` (stereo not drawn) [Compound 2678-80]: the IC50 (Table 8, Run: Pure) came out at 0.5 µM.
Turning to `COc1cc(C(=O)N2CCN(Cc3csc(NC[C@@H]4CCCN4Cc4ccc(C(F)(F)F)cc4)n3)CC2)cc(OC)c1OC` [Compound A302], the IC50 by setting is: (Table 9) 0.14 µM; (Table 9, same result in μM) 0.14 µM.
For the compound `COc1cc(C(=O)N2CCN(Cc3csc(NC[C@@H]4CCCN4Cc4ccc(C5CC5)cc4)n3)CC2)cc(OC)c1OC` [Compound A303], the IC50 was determined as 9.1 µM (Table 9) and 9.1 µM (Table 9, same result in μM).
For `COc1cc(C(=O)N2CCN(Cc3csc(NC[C@@H]4CCCN4Cc4ccc(C)cc4)n3)CC2)cc(OC)c1OC` [Compound A304], the IC50 is, setting by setting: (Table 9) 3.5 µM; (Table 9, same result in μM) 3.5 µM.
With `COc1cc(C(=O)N2CCN(Cc3csc(NC[C@@H]4CCCN4Cc4cccc(Br)c4)n3)CC2)cc(OC)c1OC` [Compound A305], the IC50 turned out to be 36 µM (Table 9) and 36 µM (Table 9, same result in μM).
For `COc1cc(C(=O)N2CCN(Cc3csc(NC[C@@H]4CCCN4Cc4ccccc4Br)n3)CC2)cc(OC)c1OC` [Compound A306], the IC50 reads like this: (Table 9) 40 µM; (Table 9, same result in μM) 40 µM.
As to `COc1ccc(CN2CCC[C@H]2CNc2nc(CN3CCN(C(=O)c4cc(OC)c(OC)c(OC)c4)CC3)cs2)cc1` [Compound A307], the IC50 (Table 9) was 9.2 µM and the IC50 (Table 9, same result in μM) worked out at 9.2 µM.
Regarding `COc1cc(C(=O)N2CCN(Cc3csc(NC[C@@H]4CCCN4Cc4ccc(S(C)(=O)=O)cc4)n3)CC2)cc(OC)c1OC` [Compound A308], the half-inhibitory concentration (IC50) is, setting by setting: (Table 9) 0.69 µM; (Table 9, same result in μM) 0.69 µM.
For the compound `COc1cc(C(=O)N2CCN(Cc3csc(NC[C@@H]4CCCN4Cc4ccncc4)n3)CC2)cc(OC)c1OC` [Compound A309], the IC50 reads like this: (Table 9) 10.4 µM; (Table 9, same result in μM) 10 µM.
On to `COc1cc(C(=O)N2CCN(Cc3csc(NC[C@@H]4CCCN4Cc4cnc(C)s4)n3)CC2)cc(OC)c1OC` [Compound A310], for which the IC50 runs as follows: (Table 9) 26 µM; (Table 9, same result in μM) 26 µM.
In the case of `COc1cc(C(=O)N2CCN(Cc3csc(NC[C@@H]4CCCN4Cc4nnc(C)s4)n3)CC2)cc(OC)c1OC` [Compound A311], the half-maximal inhibitory concentration (IC50) was over 50 µM (Table 9) and over 50 µM (Table 9, same result in μM).
For the compound `COc1cc(C(=O)N2CCN(Cc3csc(NC[C@@H]4CCCN4Cc4ccncn4)n3)CC2)cc(OC)c1OC` [Compound A312], the IC50 reads like this: (Table 9) over 50 µM; (Table 9, same result in μM) over 50 µM.
As to `COc1ccc(C(=O)N2CCN(Cc3csc(NC[C@@H]4CCCN4Cc4ccc(Br)cc4)n3)CC2)cc1` [Compound A401], the IC50 by setting is: (Table 9) 1.2 µM; (Table 9, same result in μM) 1.2 µM.
Regarding `COc1ccc(C(=O)N2CCN(Cc3csc(NC[C@@H]4CCCN4Cc4ccc(Br)cc4)n3)CC2)cc1OC` [Compound A402], the IC50 runs as follows: (Table 9) 0.62 µM; (Table 9, same result in μM) 0.62 µM.
As to `COc1cccc(C(=O)N2CCN(Cc3csc(NC[C@@H]4CCCN4Cc4ccc(Br)cc4)n3)CC2)c1` [Compound A403], the IC50 turned out to be 0.53 µM (Table 9) and 0.53 µM (Table 9, same result in μM).
Take `O=C(c1ccc2c(c1)OCO2)N1CCN(Cc2csc(NC[C@@H]3CCCN3Cc3ccc(Br)cc3)n2)CC1` [Compound A404]: the IC50 by setting is: (Table 9) 0.88 µM; (Table 9, same result in μM) 0.88 µM.
Consider `O=C(c1ccc(=O)[nH]c1)N1CCN(Cc2csc(NC[C@@H]3CCCN3Cc3ccc(Br)cc3)n2)CC1` [Compound A405], for which the 50% inhibitory concentration (IC50) reads like this: (Table 9) 0.247 µM; (Table 9, same result in μM) 0.25 µM.
On to `Cn1cnc2cc(C(=O)N3CCN(Cc4csc(NCC5CCCN5Cc5ccc(Br)cc5)n4)CC3)ccc21` (stereo not drawn) [Compound A406], for which the IC50 is, setting by setting: (Table 9) 0.98 µM; (Table 9, same result in μM) 0.98 µM.
Regarding `Cn1ncc2cc(C(=O)N3CCN(Cc4csc(NC[C@@H]5CCCN5Cc5ccc(Br)cc5)n4)CC3)ccc21` [Compound A407], the IC50 was 0.49 µM (Table 9) and 0.49 µM (Table 9, same result in μM).
Consider `COc1cc(CN2CCN(Cc3csc(NCC4CCCN4Cc4ccc(Br)cc4)n3)CC2)cc(OC)c1OC` (stereo not drawn) [Compound A501], for which the IC50 runs as follows: (Table 9) 0.74 µM; (Table 9, same result in μM) 0.74 µM.
`CC(=O)N1CCN(Cc2csc(NC[C@@H]3CCCN3Cc3ccc(Br)cc3)n2)CC1` [Compound A503]: the IC50 reads like this: (Table 9) 2.6 µM; (Table 9, same result in μM) 0.26 µM.
For `O=C(C1CC1)N1CCN(Cc2csc(NC[C@@H]3CCCN3Cc3ccc(Br)cc3)n2)CC1` [Compound A504], the IC50 (Table 9) came out at 2 µM and the IC50 (Table 9, same result in μM) came out at 2 µM.
Consider `COc1cc(CN2CCN(Cc3csc(NCC4CCCN4Cc4ccccc4)n3)CC2)cc(OC)c1OC` (stereo not drawn) [Compound A505], for which the IC50 (Table 9) is over 50 µM and the IC50 (Table 9, same result in μM) was over 50 µM.
With `COc1cc(CN2CCN(Cc3csc(NCC4CCCN4CC4CC4)n3)CC2)cc(OC)c1OC` (stereo not drawn) [Compound A506], the IC50 (Table 9) is over 50 µM and the 50% inhibitory concentration (IC50) (Table 9, same result in μM) was over 50 µM.
Regarding `COc1cc(CN2CCN(Cc3csc(NCC4CCCN4C(C)c4ccc(Br)cc4)n3)CC2)cc(OC)c1OC` (stereo not drawn) [Compound A601], the IC50 came out at 0.159 µM (Table 9) and 0.16 µM (Table 9, same result in μM).
On to `COc1cc(CN2CCN(Cc3csc(NCC4CCCN4C(C)c4ccc(Br)cc4)n3)CC2)cc(OC)c1OC` (stereo not drawn) [Compound A602], for which the IC50 reads like this: (Table 9) 0.324 µM; (Table 9, same result in μM) 0.32 µM.
In the same order, the values of `COc1cc(C(=O)N2CCN([C@H](C)c3csc(NC[C@@H]4CCCN4Cc4ccc(Br)cc4)n3)CC2)cc(OC)c1OC` [Compound A603] are 0.11 µM and 0.11 µM.
For `COc1cc(C(=O)N2CCN([C@@H](C)c3csc(NC[C@@H]4CCCN4Cc4ccc(Br)cc4)n3)CC2)cc(OC)c1OC` [Compound A604], the IC50 reads like this: (Table 9) 0.215 µM; (Table 9, same result in μM) 0.22 µM.
On to `COc1cc(CN2CCN(Cc3csc(NCC4CCCN4C(=O)c4ccc(Br)cc4)n3)CC2)cc(OC)c1OC` (stereo not drawn) [Compound A605], for which the IC50 runs as follows: (Table 9) over 50 µM; (Table 9, same result in μM) over 50 µM.
Take `COc1cc(C(=O)N2CCN(Cc3csc(N(C)C[C@@H]4CCCN4Cc4ccc(Br)cc4)n3)CC2)cc(OC)c1OC` [Compound A606]: the IC50 reads like this: (Table 9) over 50 µM; (Table 9, same result in μM) over 50 µM.
For the compound `COc1cc(C(=O)N2C[C@H](C)N(Cc3csc(NC[C@@H]4CCCN4Cc4ccc(Br)cc4)n3)C[C@@H]2C)cc(OC)c1OC` [Compound A607], the IC50 (Table 9) came to 0.096 µM and the half-maximal inhibitory concentration (IC50) (Table 9, same result in μM) is 0.096 µM.
Consider `COc1cc(C(=O)N2C[C@@H](C)N(Cc3csc(NC[C@@H]4CCCN4Cc4ccc(Br)cc4)n3)C[C@H]2C)cc(OC)c1OC` [Compound A608], for which the IC50 reads like this: (Table 9) 1.6 µM; (Table 9, same result in μM) 1.6 µM.
Consider `COc1cc(C(=O)N2CCN(Cc3nsc(NC[C@@H]4CCCN4Cc4ccc(Br)cc4)n3)CC2)cc(OC)c1OC` [Compound A702], for which the IC50 (Table 10, * n = 7, median, P1 and P2 are different isomers) worked out at 0.015 µM; the 50% inhibitory concentration (IC50) (Table 10, same result in μM, P1 and P2 are different isomers) was determined as 0.015 µM.
As for `COc1cc(C(=O)C2CCN(Cc3csc(NC[C@@H]4CCCN4Cc4ccc(Br)cc4)n3)CC2)cc(OC)c1OC` [Compound A703], the IC50 (Table 9) turned out to be 0.109 µM and the IC50 (Table 9, same result in μM) was 0.11 µM.
As to `COc1cc(C(=O)N2CCN(Cc3csc(NC[C@@H]4C[C@@H](O)CN4Cc4ccc(Br)cc4)n3)CC2)cc(OC)c1OC` [Compound A704], the IC50 was found to be 0.089 µM (Table 9) and 0.089 µM (Table 9, same result in μM).
